# Entries after “also recorded” stand apart in the source; their conditions may differ.
# Experiments:
# [1] = system: MCF7 human breast cancer cells; test: MTT assay: cell viability; format: cell-based; settings: for MCF7 cell viability: 0.1 to 100 µM, 24, 48 and 72 h; for IC50: MCF7, MTT
# Description: MCF7 (#HTB-22) cell line, derived from human breast adenocarcinoma, was obtained from the American Type Culture Collection (ATCC®, Manassas, VA, USA). It was maintained under standard conditions: RPMI-1640, 2.0 g/L NaHCO3, supplemented with 10% FBS and gentamicin […].
# (§1) Cells were treated with isolated compounds (0.1, 1, 5, 10, 25, 50 and 100 µM) for 24, 48 and 72 h. After treatments, culture media was replaced by MTT (100 μL) dissolved in RPMI media (0.33 mg/mL final concentration) per well and incubated at 37 °C with 5% CO2 for 1 h in dark. After incubating, supernatant was removed and replaced with DMSO to dissolve formazan crystals. Absorbance value was measured in a microplate reader (SPECTROstar Nano; BMG Labtech, Ortenberg, Germany) at 570 nm. IC25 and IC50 values were determined using GraphPad Prism 7.00 (GraphPad Software, La Jolla, CA, USA). Percentage of cell viability was calculated in comparison with control cells ([Mosmann, 1983]).
# MCF7 cell line = system: MCF7 cell line; design: method as in Rodríguez-Chávez et al. (2015b); settings: ref Rodríguez-Chávez et al. (2015b); cited from earlier work
# caspase-3 = test: Caspase-3 activity assay (fluorometric, cell lysates); format: cell-based, human; settings: MCF7, 48 h
# Description: (§2) Mechanical scraping was employed to collect adherent MCF7 cells after treatments. Then, cells were centrifugated (1,500 rpm for 5 min at 37 °C) and supernatants were removed. Pellets were lyzed adding lysis buffer (25 mM TrisHCl, pH 7.4, 150 mM NaCl, 1 mM EDTA, 0.1% Triton X-100, 1 mg/mL leupeptin, 0.5 mM PMSF and 1 mg/mL pepstatin) and put on ice for 20 min. Finally, cell lysates were centrifugated (2,500 rpm for 10 min at 4 °C) and supernatants were collected to following assays.
# (§3) Fluorometric assays of caspase-3 and caspase-9 enzymes were performed in accordance with the instructions provided by ALEXIS Biochemicals kits (Enzo Life Sciences Inc., San Diego, CA, USA). This enzymatic assay was based on hydrolysis of the peptide substrates of caspases-3/9 (Ac-DEVD 20 μM and Ac-LEHD 20 μM, respectively) conjugated to a fluorochrome (7-amido-4-methylcoumarin or AMC) at the terminal carbon of Asp, resulting in the release of the fluorescent motif. Cell lysates (20 μg) were used for each treatment. After incubation for 1 h at 37 °C, fluorescence was determined using a FLx800 microplate reader at excitation and emission wavelengths of 380 and 460 nm, respectively.
# [2] = system: mitochondrial respiration of MCF7 cells; test: Cell respirometry (high resolution, O2k); format: cell-based, human; settings: MCF7, IC50, 48 h
# Description: The oxygen consumption experiments were performed using a high resolution respirometry equipment O2k meter (Oroboros Instruments, Innsbruck, Austria) described by [Aparicio-Trejo et al. (2019)]. The respiratory parameters were defined as: (A) Routine respiration, corresponding to oxygen consumption in presence only of cells in culture medium. (B) Leak of the respiration, corresponding to cellular oxygen consumption in presence of 15 μM oligomycin. (C) RCI corresponding to the ratio basal/leak. (D) Respiration attributable to OXPHOS (P) corresponding to: Routine-Leak. All parameters were corrected by subtracting non-mitochondrial respiration resulting from the addition of 15 μM rotenone and 15 μM antimycin A and normalized by cells number.
# MCF7 cells [3] = test: Cell morphology (Cytation 5 imaging); format: cell-based, human; settings: MCF7, 48 h; compound at IC50, H2O2 1 mM
# Bcl-2 = test: Immunoblotting of Bcl-2; format: cell-based, human; settings: MCF7, 48 h, IC50 and IC50/2
# Description: (§4) Western blot assays were performed using standard techniques. Primary antibodies were anti-caspase-3, Bcl-2 and GAPDH from Santa Cruz Biotechnology (Santa Cruz Biotechnology, Inc., Dallas, TX, USA). The secondary antibody was anti-rabbit IgG, HRP-linked (Antibody #7074; Cell Signaling Technology, Danvers, MA, USA).
# MCF7 cells [4] = test: Trypan blue dye exclusion assay: cell proliferation; format: cell-based, human; settings: IC50 (55.24 μM)
# Description: Cells were trypsinized, centrifuged and stained with trypan blue dye (0.4% w/v in PBS). The number of viable cells and dead cells were counted on a Neubauer hemocytometer under an inverted microscope. The percentage of cell proliferation was calculated by comparing with control cells.
# caspase 3 = test: Immunoblotting of caspase 3; format: cell-based, human; settings: MCF7, 48 h; compound at IC50 concentration, H2O2 1.0 mM
# Description: as §4
# [5] = system: intracellular ROS in MCF7 cells; test: DCFH-DA assay: intracellular ROS detection; format: cell-based, human; settings: compound at IC50 concentration, H2O2 1 mM
# Description: Intracellular ROS were detected by fluorescent compound DCFH-DA. Cells were treated with 1.0 mM H2O2, IC50 (55.2 μM) and IC50/2 (27.6 μM) of 7-hydroxy-3,4-dihydrocadalene for 48 h. Then, culture media was replaced with DCFH-DA (20 μM dissolved in glucose 1.8 mg/mL PBS) per well and incubated in the dark for 30 min. DCF fluorescence intensity was measured using an FLx800 microplate fluorescence reader (Bio-Tek Instruments, Inc., Winooski, VT, USA) at 480 and 530 nm excitation and emission wavelengths, respectively ([LeBel, Ischiropoulos & Bondy, 1992]).
# MCF7 cells [6] = test: Wound-healing assay: cell migration; format: cell-based, human; settings: IC50 (55.24 μM), 24, 48 and 72 h
# Description: Wound areas were monitored at four different times (0, 24, 48, and 72 h) using the Cytation 5 cell imager (BioTek Instruments, Inc., Winooski, VT, USA). To determine the migration rate of the cells, the wound areas were quantified using the ImageJ software, ([Schneider, Rasband & Eliceiri, 2012]). The variation between the percentage of cell migration (as a function of time) was calculated using the following formula:
# %Migration=100−[(Areaofinjurytimet/Areaofinjurytimezero)(100)]
# caspase-9 = test: Caspase-9 activity assay (fluorometric, cell lysates); format: cell-based, human; settings: MCF7, 48 h; for Caspase 9 activity compared to control cells: compound at IC50, H2O2 1.0 mM
# Description: as §2, §3
# HEK 293 cells = test: MTT assay: cell viability in non-tumoral control cells; format: cell-based, human; settings: non-tumoral cells from kidney, 72 h
# Description: HEK 293 (CRL-1573) cell line, human embryonic kidney, was obtained from ATCC® (Manassas, VA, USA). It was grown in DMEM medium (Caisson Laboratories, Inc., Smithfield, UT, USA) with 10% v/v phenol red of inactivated FBS, 44 mM NaHCO3, 1 mM sodium pyruvate and penicillin 100 I.U.−100 μg/mL streptomycin−25 ng/mL amphotericin B, pH 7.4. Both cell lines were incubated at 37 °C and 5% CO2.
# as §1
# [7] = system: lipid peroxidation in MCF7 cells; test: TBARS assay: lipid peroxidation; format: cell-based, human; settings: MCF7, 48 h
# Description: as §2
# Total protein concentrations were measured as described by [Smith et al. (1985)]. BCA/CuSO4 reactive solution (1:20) was added to each cell lysates and incubated in the dark for 30 min at 37 °C. Absorbance was measured with a SPECTROstar Nano microplate reader (BMG Labtech, Ortenberg, Germany) at a wavelength of 550 nm.
# Lipid peroxidation was measured colorimetrically as described by [Uchiyama & Mihara (1978)]. Cell pellets, stored at −80 °C, were thawed at room temperature and then, they were homogenized in thiobarbituric acid reactive substances (TBARS) solution (28.2 mM 2-TBA in 18.5 mL of TCA 16%-HCl 0.27 N). Then, the mixtures were heated for 10 min at 100 °C, and subsequently cooled in ice to stop the reaction. Supernatants of each sample were separated by centrifugation (3,000 rpm for 10 min at 4 °C) and immediately loaded into a SPECTROstar Nano microplate reader (BMG Labtech, Ortenberg, Germany) for absorbance measurement at 530 nm. TBARS values were expressed as nmol/mg protein.
# [8] = compound at IC50 concentration, H2O2 1.0 mM
smiles,measurement,setting,value
"CC1=CC[C@H](C(C)C)c2cc(C)c(OC(=O)Nc3ccccc3)cc21 [7-(phenylcarbamate)-3,4-dihydrocadalene]",MCF7 cell viability,[1]; MTT,did not show a clear trend of MCF7 cell viability reduction; also recorded: lower or null cytotoxic potential; also recorded: not cytotoxic
Cc1cc2c(C(C)C)ccc(C)c2cc1OC(=O)Nc1ccccc1 [7-(phenylcarbamate)-cadalene],MCF7 cell viability,[1]; MTT,lower or null cytotoxic potential; also recorded: not cytotoxic
same,MCF7 cell growth,"[1]; MTT, 10 and 50 µM at 72 h of exposure",slightly inhibited MCF7 cell growth
"CC1=CC[C@H](C(C)C)c2cc(C)c(O)cc21 [7-hydroxy-3,4-dihydrocadalene]",IC50,MCF7 cell line,61.4 µM
same,Caspase 3 activity,caspase-3; IC50/2 concentration,no effect
same,IC50,"[1]; Homo sapiens, 48 h",55.2 µM
same,IC50,"[1]; Homo sapiens, 72 h",52.8 µM
same,MCF7 cell viability,[1]; MTT,reduced MCF7 cell viability in a concentration and time-dependent manner
same,RCI,[2],slightly reduction
same,Cell morphology,MCF7 cells [3],"morphological changes (cells are rounded off, adhesion capacity decreases, and membrane is blebbing) were observed"
same,Bcl-2 levels (Western blot),Bcl-2,Slightly differences of Bcl-2 levels were observed but not significant
same,Cell proliferation,MCF7 cells [4],significantly reduced cell proliferation in a concentration and time dependent manner
same,Expression of caspase 3 (Western blot),caspase 3,more evident
same,Intracellular ROS levels compared to control cells,[5],182%
same,MCF7 migration,MCF7 cells [6],significantly inhibits MCF7 migration
same,Caspase 9 activity,caspase-9; IC50/2 concentration,no effect
same,Caspase 9 activity compared to control cells,caspase-9,118.42%
same,Effect on HEK 293 cell viability,HEK 293 cells,without effect
same,Lipid peroxidation levels (TBARS),[7]; IC50/2,0.23 nmol/mg protein
same,Lipid peroxidation levels (TBARS),[7]; [8],0.52 nmol/mg protein
"CC/C(=C(\c1ccc(O)cc1)c1ccc(OCCN(C)C)cc1)c1ccccc1 [(Z)-4-hydroxytamoxifen, reference compound]",IC50,"[1]; 24 h, positive control",16.5 µM
"OO [H2O2, hydrogen peroxide, reference compound]",Caspase 3 activity compared to control cells,"caspase-3; compound at IC50, H2O2 1.0 mM",136.25%
same,Cell morphology,MCF7 cells [3],"morphological changes (cells are rounded off, adhesion capacity decreases, and membrane is blebbing) were observed"
same,Expression of caspase 3 (Western blot),caspase 3,increased
same,Intracellular ROS levels compared to control cells,[5],194.9%
same,Caspase 9 activity compared to control cells,caspase-9,115.08%
same,Lipid peroxidation levels (TBARS),[7]; [8],0.24 nmol/mg protein
